Measurements: patent publication US20240180893A1, “METHODS OF TREATMENT OF BREAST CANCER” (AstraZeneca AB, priority 2022, published 2024)

How the values were obtained:
[1] = test system: HR+, HER2− metastatic or loco-regionally recurrent breast cancer; test: SERENA-2 phase 2 study: progression free survival (PFS), RECIST 1.1, assessed by Investigator; type: in vivo, human (post-menopausal women)
Excerpt: In embodiments of the present speciation the method of treatments, ngSERD for use in treatment or for use in the manufacture of a medicament, kit or pharmaceutical composition for use delivers an improvement in the time to disease progression or progression free survival (PFS) relative to that obtained from use of fulvestrant (the first generation SERD). In such embodiment the PFS improvement is relative to that observed with standard of care, i.e. fulvestrant administered at the approved dose of 500 mg once monthly by injection. Clinical activity as assessed by PFS can be determined by the standard assessment of tumour response as per RECIST 1.1 (Eisenhauser et al., Eur J Cancer 2009 January; 45(2):228-47). The RECIST criteria can be evaluated by the treating physician/investigator or by Blinded Independent Central Review (BICR).
In the SERENA-2 clinical trial, further details of which are provided below, the efficacy of camizestrant administered once daily in tablet form at doses of 75 mg and 150 mg as a treatment for patients with HR+, HER2− metastatic or loco-regionally recurrent breast cancer that the breast cancer has recurred or progressed following at least one prior line of endocrine therapy was assessed. The control arm patient in this study were treated with standard of care fulvestrant, the first generation SERD, administered as once monthly 500 mg injection. The study was powered to differentiate between the camizestrant and standard of care, fulvestrant (F), treatment arms, but was not powered to differentiate between the 75 mg and 150 mg camizestrant dose cohorts.
A randomised, open-label, parallel-group, multicentre phase 2 study comparing the efficacy and safety of oral AZD9833 versus fulvestrant in women with advanced er-positive her2-negative breast cancer was carried out according to the following protocol and schedule of activities. The study evaluated the efficacy and safety of AZD9833 (75, 150 and 300 mg, oral [PO]) administered once daily as a monotherapy in comparison with fulvestrant administered according to its label (i. e., slow IM injection into the buttocks [1 to 2 minutes per injection] as two 5-mL injections, 1 in each buttock, on Day 1, Day 15, Day 29 and 4-weekly thereafter).
This is a randomised, open-label, parallel-group, multicentre Phase 2 study to compare the efficacy and safety of daily PO AZD9833 versus IM fulvestrant in women with advanced ER positive HER2 negative breast cancer. Post-menopausal women with histologically or cytologically confirmed metastatic or loco-regionally recurrent disease before randomisation and fulfilling all of the inclusion criteria and none of the exclusion criteria will be included. Randomisation will be stratified according to the prior use of CDK4/6 inhibitors and the presence of liver and/or lung metastases.
After the screening visit and confirmation of eligibility, patients will be randomly assigned in a 1:1:1:1 ratio to receive 1 of the following 4 treatments, consisting in 4-week treatment cycles until disease progression (assessed by the Investigator as defined by Response Evaluation Criteria in Solid Tumours [RECIST] version 1.1): • AZD9833 (75 mg, PO, once daily) • AZD9833 (150 mg, PO, once daily) • AZD9833 (300 mg, PO, once daily) • Fulvestrant (500 mg IM, Day 1, Day 15, Day 29, and 4-weekly thereafter)
Efficacy assessments. Assessment of tumour response. The assessment of tumour response per RECIST version 1.1 will be used to determine the clinical activity (assessed by PFS) and anti-tumour activity (assessed by ORR, clinical benefit rate [CBR]) of AZD9833 and fulvestrant.
Investigator's assessment of tumour response per RECIST version 1.1. Tumour response will be assessed by the Investigators per RECIST version 1.1 (Eisenhauer et al. 2009). From the Investigator's review of the imaging scans, the evaluation of TLs, NTLs and new lesions will be used to determine the overall visit response for each patient. […]

[2] = test system: HR+, HER2− metastatic or loco-regionally recurrent breast cancer; test: SERENA-2 phase 2 study: objective response rate (ORR), patients with measurable disease; type: in vivo, human (post-menopausal women); conditions: for Number of patients with response: includes unconfirmed responses; for Adjusted response rate (%): logistic regression, factors prior CDK4/6 inhibitor and lung and/or liver metastasis; for ORR: comparison against fulvestrant, odds ratio: odds ratio > 1 favors AZD9833; for (%) of patients with response: patients with measurable disease
Excerpt: In embodiments the specification provides a method of treatment of hormone receptor positive (HR+), human epidermal growth factor receptor 2 negative (HER2−), metastatic or loco-regionally recurrent breast cancer, comprising administering camizestrant to a patient suffering from such cancer, characterised in that the cancer has recurred or progressed following at least one prior line of endocrine therapy, wherein the treatment delivers an improvement in objective response rate (ORR) relative to that obtainable with fulvestrant treatment. The ORR is defined as the percentage of patients with at least 1 Investigator-assessed visit response of complete response (CR) or partial response (PR) prior to any evidence of progression. Complete or partial responses are assessed according to the RECIST 1.1 criteria as detailed below. In embodiments the ORR derived from the method of treatment is at least 15.7%, for example 20.3%.
A complete response denotes the disappearance of all target lesions (TLs) since baseline. Any pathological lymph nodes selected as TLs must have a reduction in short axis to <10 mm. A partial response denotes an at least a 30% decrease in the sum of the diameters of TL, taking as reference the baseline sum of diameters. […] Further information on the evaluation of target and non-target lesions is provided below.
The objective response rate (ORR) will be compared between AZD9833 (each dose level) and fulvestrant using a logistic regression model adjusting for prior use of CDK4/6 inhibitors and presence of lung and/or liver metastases.
Secondary endpoints: objective response rate. The ORR is defined as the percentage of patients with at least 1 Investigator-assessed visit response of CR or PR prior to any evidence of progression. The ORR will be based on a subset of the FAS with measurable disease at baseline.
The ORR will be compared between AZD9833 (each dose level) and fulvestrant using a logistic regression model adjusting for prior use of CDK4/6 inhibitors and presence of lung and/or liver metastases. The results of the analysis will be presented in terms of an odds ratio for each treatment comparison together with its associated profile likelihood 90% CI and 2 sided p values (based on twice the change in log-likelihood resulting from the addition of a treatment factor to the model).

[3] = camizestrant 75 mg once daily, all patients, by Investigator
[4] = camizestrant 75 mg, subgroup with metastases to the liver and/or lungs
[5] = camizestrant 75 mg, subgroup with prior CDK4/6 inhibitor therapy
[6] = camizestrant 150 mg once daily, all patients, by Investigator
[7] = camizestrant 150 mg, subgroup with metastases to the liver and/or lungs
[8] = camizestrant 150 mg, subgroup with prior CDK4/6 inhibitor therapy
[9] = fulvestrant 500 mg once monthly injection, all patients, by Investigator
[10] = fulvestrant 500 mg, ESR1m subgroup
[11] = fulvestrant 500 mg, subgroup with metastases to the liver and/or lungs
[12] = fulvestrant 500 mg, subgroup with prior CDK4/6 inhibitor therapy

Question: For `C[C@@H]1Cc2c(ccc3[nH]ncc23)[C@@H](c2ccc(NC3CN(CCCF)C3)cn2)N1CC(F)(F)F` [camizestrant, N-(1-(3-fluoropropyl)azetidin-3-yl)-6-((6S,8R)-8-methyl-7-(2,2,2-trifluoroethyl)-6,7,8,9-tetrahydro-3H-pyrazolo[4,3-f]isoquinolin-6-yl)pyridin-3-amine], which “PFS events [no.]” value ([1]; AZD9833 75 mg (n = 22), subgroup with mutation to the estrogen receptor (ESR1m)) is on record?
Answer: The value was 15.

Question: And the “Hazard ratio vs fulvestrant” value ([1]; AZD9833 75 mg, ESR1m subgroup)?
Answer: Its value is 0.33.

Question: And the “Median PFS” value ([1]; AZD9833 75 mg, ESR1m subgroup)?
Answer: The value was 6.3 months.

Question: And the “PFS events (%)” value ([1]; AZD9833 75 mg, ESR1m subgroup)?
Answer: Its value is “(68.2) %”.

Question: And the “PFS events [no.]” value ([1]; AZD9833 150 mg (n = 26), subgroup with mutation to the estrogen receptor (ESR1m))?
Answer: The value was 22.

Question: And the “Hazard ratio vs fulvestrant” value ([1]; AZD9833 150 mg, ESR1m subgroup)?
Answer: Its value is 0.55.

Question: And the “Median PFS” value ([1]; AZD9833 150 mg, ESR1m subgroup)?
Answer: Its value is 9.2 months.

Question: And the “PFS events (%)” value ([1]; AZD9833 150 mg, ESR1m subgroup)?
Answer: Its value is “(84.6) %”.

Question: And the “Improvement of PFS over fulvestrant” value ([1]; both camizestrant arms (75 mg and 150 mg), all comer population, by either Investigator or BICR)?
Answer: Its value is “at least 3.5 months”.

Question: And the “PFS events [n]” value ([1]; camizestrant 75 mg (n = 38), subgroup with prior CDK4/6 inhibitor therapy)?
Answer: Its value is 29.

Question: What about the “PFS events [no.]” value ([1]; camizestrant 75 mg (n = 43), subgroup with metastases to the liver and/or lungs) of the same compound?
Answer: Its value is 31.

Question: What about the “Hazard ratio for disease progression relative to fulvestrant” value [1, 3] of the same compound?
Answer: Its value is 0.58.

Question: And the “Proportion of patients without progression at 12 m” value [1, 3]?
Answer: The value was 34.3%.

Question: What about the “Median PFS” value ([1]; camizestrant 75 mg tablet once daily, all patients, by Investigator) of the same compound?
Answer: The value was 7.2 months.

Question: What about the “Hazard ratio vs fulvestrant” value [1, 4] of the same compound?
Answer: Its value is 0.43.

Question: And the “Median PFS” value [1, 4]?
Answer: The value was 7.2 months.

Question: And the “PFS events (%)” value [1, 4]?
Answer: Its value is “(72.1) %”.

Question: What about the “Hazard ratio vs fulvestrant” value [1, 5] of the same compound?
Answer: Its value is 0.49.

Question: What about the “Median PFS” value [1, 5] of the same compound?
Answer: The value was 5.5 months.

Question: And the “PFS events (%)” value [1, 5]?
Answer: Its value is “(76.3) %”.

Question: And the “PFS events [n]” value ([1]; camizestrant 150 mg (n = 37), subgroup with prior CDK4/6 inhibitor therapy)?
Answer: Its value is 29.

Question: And the “PFS events [no.]” value ([1]; camizestrant 150 mg (n = 43), subgroup with metastases to the liver and/or lungs)?
Answer: The value was 32.

Question: And the “Hazard ratio for disease progression relative to fulvestrant” value [1, 6]?
Answer: The value was 0.67.

Question: What about the “Proportion of patients without progression at 12 m” value [1, 6] of the same compound?
Answer: Its value is 44.5%.

Question: What about the “Median PFS” value ([1]; camizestrant 150 mg tablet once daily, all patients, by Investigator) of the same compound?
Answer: Its value is 7.7 months.

Question: And the “Hazard ratio vs fulvestrant” value [1, 7]?
Answer: The value was 0.55.

Question: What about the “Median PFS” value [1, 7] of the same compound?
Answer: Its value is 5.6 months.

Question: And the “PFS events (%)” value [1, 7]?
Answer: Its value is “(74.4) %”.

Question: And the “Hazard ratio vs fulvestrant” value [1, 8]?
Answer: Its value is 0.68.

Question: And the “Median PFS” value [1, 8]?
Answer: The value was 3.8 months.

Question: And the “PFS events (%)” value [1, 8]?
Answer: The value was “(78.4) %”.

Question: And the “Number of patients with response” value ([2]; AZD9833 75 mg, N=70 with measurable disease)?
Answer: Its value is 11.

Question: And the “Adjusted response rate (%)” value ([2]; AZD9833 75 mg)?
Answer: Its value is 15.7%.

Question: And the “ORR: comparison against fulvestrant, odds ratio” value ([2]; AZD9833 75 mg)?
Answer: Its value is 1.43.

Question: And the “(%) of patients with response” value ([2]; AZD9833 75 mg)?
Answer: The value was “(15.7) %”.

Question: What about the “Number of patients with response” value ([2]; AZD9833 150 mg, N=65 with measurable disease) of the same compound?
Answer: Its value is 13.

Question: And the “Adjusted response rate (%)” value ([2]; AZD9833 150 mg)?
Answer: Its value is 20.3%.

Question: What about the “ORR: comparison against fulvestrant, odds ratio” value ([2]; AZD9833 150 mg) of the same compound?
Answer: The value was 1.96.

Question: What about the “(%) of patients with response” value ([2]; AZD9833 150 mg) of the same compound?
Answer: Its value is “(20.0) %”.

Question: Which results are given for `C[C@]12CC[C@@H]3c4ccc(O)cc4C[C@@H](CCCCCCCCC[S+]([O-])CCCC(F)(F)C(F)(F)F)[C@H]3[C@@H]1CC[C@@H]2O` (some centres unmarked) [fulvestrant, reference compound]?
Answer: PFS events [no.] ([1]; fulvestrant 500 mg (n = 35), subgroup with mutation to the estrogen receptor (ESR1m)): 31; PFS events [n] ([1]; fulvestrant 500 mg (n = 37), subgroup with prior CDK4/6 inhibitor therapy): 33; PFS events [no.] ([1]; fulvestrant 500 mg (n = 43), subgroup with metastases to the liver and/or lungs): 39; Median PFS [1, 9]: 3.7 months; Proportion of patients without progression at 12 m [1, 9]: 23.8%; Median PFS [1, 10]: 2.2 months; PFS events (%) [1, 10]: (88.6) %; Median PFS [1, 11]: 2.0 months; PFS events (%) [1, 11]: (90.7) %; Median PFS [1, 12]: 2.1 months; PFS events (%) [1, 12]: (89.2) %; Number of patients with response ([2]; fulvestrant, N=68 with measurable disease): 8; Adjusted response rate (%) ([2]; fulvestrant): 11.5%; (%) of patients with response ([2]; fulvestrant): (11.8) %
